In one assay the target is α p38 (Homo sapiens, UniProt Q16539). In words: p38 MAP kinase inhibitory activity (33P-ATP / myelin basic protein filter assay). The note with it: for IC50: MKK6-activated α p38, MBP substrate. In kind it is biochemical. The protocol: Compounds of the invention were tested for p38 MAP kinase inhibitory activity using the following protocol.
The reaction was allowed to proceed for fifty minutes before being stopped with an excess of ortho-phosphoric acid (30 μl at 2%). γ^33 P-ATP which remained unincorporated into the myelin basic protein was separated from phoshorylated MBP on a Mlipore (RTM) MAPH filter plate. The wells of the MAPH plate were wetted with 0.5% orthophosphoric acid, and then the results of the reaction were filtered with a Millipore vacuum filtration unit through the wells. Following filtration, the residue was washed twice with 200 μl of 0.5% orthophosphoric acid. Once the filters had dried, […] of Microscint 20™ scintillant was added, and then counted on a Packard Topcount™ counter for 30 seconds. The percentage inhibition of the p38 activity was calculated and plotted in order to determine the concentration of the test compound required to inhibit 50% of the p38 activity (IC50).

Another assay concerns THP-1 cells. Description: Inhibition of LPS-induced TNF-α production in THP-1 cells, in vitro assay. In kind it is cell-based. The note with it: Homo sapiens; PMA-treated THP-1 cells, 1 μg/ml LPS, 6 h, TNF-α by ELISA. As to the method: The ability of the compounds of this invention to inhibit the TNF-α release was determined using a rninor modification of the methods described in Rawlins P., et al., “Inhibition of endotoxin-induced TNF-α production in macrophages by 5Z-7-oxo-zeaenol and other fungal resorcyclic acid lactones,” International J. of Immunopharmacology, 21, 799, (1999).
THP-1 cells, human monocytic leukaemic cell line, ECACC) were maintained in culture medium [RPMI 1640 (Invitrogen) and 2 mM L-Glutamine supplemented with 10% foetal bovine serum (Invitrogen)] at approximately 37° C. in humidified 5% CO2 in stationary culture. TBP-1 cells were suspended in culture medium containing 50 ng/ml PMA (SIGMA), seeded into a 96-well tissue culture plate (IWAKI) at 1×10^5 cells/well (100 μl/well) and incubated as described above for approximately 48 h. The medium was then aspirated, the wells washed twice in Phosphate Buffered Saline and 1 μg/ml LPS (SIGMA) in culture medium was added (200 μl/well).
Test compounds were reconstituted in DMSO (SIGMA) and then diluted with the culture medium such that the final DMSO concentration was 0.1%. […] Culture supernatants were collected and the amount of human TNF-α present was determined by ELISA (R&D Systems) performed according to the manufacturer's instructions. […]

Sequence of α p38 (Q16539 whole entry): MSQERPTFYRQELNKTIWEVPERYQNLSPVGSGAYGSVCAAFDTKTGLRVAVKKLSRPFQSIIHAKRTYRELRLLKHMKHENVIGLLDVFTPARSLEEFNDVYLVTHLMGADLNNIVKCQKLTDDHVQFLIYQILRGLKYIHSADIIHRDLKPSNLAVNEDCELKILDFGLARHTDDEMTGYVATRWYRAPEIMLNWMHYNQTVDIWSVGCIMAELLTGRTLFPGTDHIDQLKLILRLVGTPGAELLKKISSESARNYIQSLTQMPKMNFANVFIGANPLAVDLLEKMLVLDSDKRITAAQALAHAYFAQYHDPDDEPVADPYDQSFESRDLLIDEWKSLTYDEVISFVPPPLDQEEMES

Molecule “3-(2-(4-Pyridyl)ethyl-7-azaindole [Example 12]” had an IC50 on α p38 (50 min reaction) of 177 µM.
At α p38 (50 min reaction), `c1ccc2c(CCc3ccncc3)c[nH]c2c1` [Example 1, 3-(2-(4-Pyridyl)ethyl)indole] had an IC50 of 33 µM.
As to `Cn1cc(CCc2ccncc2)c2ccccc21` [Example 2, 1-Methyl-3-(2-(4-pyridyl)ethyl)indole], the IC50 against α p38 (50 min reaction) worked out at 240 µM.
On the same count and under the same terms, under `c1ccc(CCc2c[nH]c3ccccc23)nc1` [Example 3, 3-(2-(2-Pyridyl)ethyl)indole] stands 820 µM.
The same measure, in the same setting: the figure for `Cc1ccc2[nH]cc(CCc3ccncc3)c2c1` [Example 4, 5-Methyl-3-(2-(4-pridyl)ethyl)indole] is 250 µM; for `Clc1ccc2[nH]cc(CCc3ccncc3)c2c1` [Example 5, 5-Chloro-3-(2-(4-pyridyl)ethyl)indole] it is 122 µM; for `O=[N+]([O-])c1ccc2[nH]cc(CCc3ccncc3)c2c1` [Example 6, 5-Nitro-3-(2-(4-pyridyl)ethyl)indole] it is 300 µM.
Still for that read-out and setting: under `CC(=O)Nc1ccc2[nH]cc(CCc3ccncc3)c2c1` [Example 7, 5-Acetamido-3-(2-(4-pyridyl)ethyl)indole] stands 650 µM.
For `Cc1[nH]c2ccccc2c1CCc1ccncc1` [Example 8, 2-Methyl-3-(2-(4-pyridyl)ethyl)indole], inhibition at α p38 (50 min reaction) was half-maximal at 270 µM (IC50).
In turn, `Cc1cccc2[nH]cc(CCc3ccncc3)c12` [Example 9, 4-Methyl-3-(2-(4-pyridyl)ethyl)indole] displayed an IC50 against α p38 (50 min reaction) of 111 µM.
Still for that read-out and setting: the figure for `Cc1cccc2c(CCc3ccncc3)c[nH]c12` [Example 10, 7-Methyl-3-(2-(4-pyridyl)ethyl)indole] is 35 µM; for `Fc1cccc2[nH]cc(CCc3ccncc3)c12` [Example 11, 4-Fluoro-3-(2-(4-pyridyl)ethyl)indole] it is 45 µM; for `O=C(Nc1ccc2[nH]cc(CCc3ccncc3)c2c1)c1ccccc1` [Example 13B, 5-Benzamido-3-(2-(pyrid-4-yl)ethyl)indole] it is 40 µM.
In the case of `O=C(Nc1ccc2[nH]cc(CCc3ccncc3)c2c1)c1cc(F)cc(N2CCOCC2)c1` [Example 14B, 5-(3-Fluoro-5-(4-morpholino)benzamido)-3-(2-(4-pyridyl)ethyl)indole], the IC50 was 0.5 µM at α p38 (unit stated in cell) and 0.53 µM in the assay with THP-1 cells.
Turning to `O=C(Nc1ccc2c(CCc3ccncc3)c[nH]c2c1)c1cc(F)cc(N2CCOCC2)c1` [Example 15B, 6-(3-Fluoro-5-(4-morpholino)benzamido)-3-(2-(4-pyridyl)ethyl)indole], the inhibition at 3 µM on α p38 (@ 3 μM, read-out: percentage inhibition of the p38 activity) turned out to be 36%.
`O=C(Nc1ccc2[nH]cc(CCc3ccncc3)c2c1)c1cccc(OC(F)(F)F)c1` [Example 16B, 5-(3-Trifluoromethoxybenzamido)-3-(2-(4-pyridy)ethyl)indole] had an IC50 on α p38 (50 min reaction) of 2 µM. That is a single-digit micromolar value.
The same measure, in the same setting: under `O=C(Nc1ccc2[nH]cc(CCc3ccncc3)c2c1)c1cccc(C(F)(F)F)c1` [Example 17B] stands 4 µM; under `O=C(Nc1ccc2c(ccn2CCc2ccncc2)c1)c1cc(F)cc(N2CCOCC2)c1` [Example 18B, 5-(3-Fluoro-5-(4-morpholino)benzamido)-1-(2-(4-pyridyl)ethyl)indole], 3 µM; under `c1ccc2c(c1)ccn2CCc1ccncc1` [Example 19, 1-(2-(4-pyridyl)ethyl)indole], 200 µM.
For `Nc1ccc2[nH]cc(CCc3ccncc3)c2c1` [Example 20A, 5-Amino-3-(2-(4-pyridyl)ethyl)indole], the inhibition at 1000 µM at α p38 (@ 1 mM, read-out: percentage inhibition of the p38 activity) is 23%.
Consider `O=C(Nc1ccccc1)Nc1ccc2[nH]cc(CCc3ccncc3)c2c1` [Example 20B, 5-(Phenylcarbamoylamino)-3-(2-(4-pyridyl)ethyl)indole], for which the IC50 at α p38 (50 min reaction) was found to be 28 µM.
The same measure, in the same setting: the figure for `Clc1nccc(CCc2c[nH]c3ccccc23)n1` [Example 22, 3-(2-(2-Chloro-4-pyrimidinyl)ethyl)indole] is 120 µM; for `O=C(Nc1ccc2[nH]cc(CCc3ccncc3)c2c1)c1ccnc(N2CCOCC2)c1` [Example 23B, 5-(2-(4-Morpholino)isonicotinamido)-3-(2-(4-pyridyl)ethyl)indole] it is 1.3 µM.
For the molecule `O=C1c2ccccc2C(=O)N1c1ccc2[nH]cc(CCc3ccncc3)c2c1` [Example 24B, 5-(1-Phthalimido)-3-(2-(4-pyridyl)ethyl)indole], the inhibition at 300 µM at α p38 (@ 300 μM, read-out: percentage inhibition of the p38 activity) was 25%.
As for `Nc1ccc2ccn(CCc3ccncc3)c2c1` [Example 25A, 6-Amino-1-(2-(4-pyridyl)ethyl)indole], at α p38 (50 min reaction), the IC50 is 475 µM.
Take `O=C(Nc1ccc2[nH]cc(CCc3ccncc3)c2c1)c1ccc(N2CCCC2=O)cc1` [Example 26, 5-(4-(2-oxo-pyrrolidin-1-yl)benzamido)-3-(2-(4-pyridyl)ethyl)indole]: the inhibition at 1 µM at α p38 (@ 1 μM, read-out: percentage inhibition of the p38 activity) was determined as 28%.
Consider `OCCNc1nccc(CCc2c[nH]c3ccccc23)n1` [Example 27], for which, on α p38 (50 min reaction), it took 38 µM to reach half-maximal inhibition (IC50).
On the same count and under the same terms, under `CC(C)(CO)Nc1nccc(CCc2c[nH]c3ccccc23)n1` [Example 28, 3-(2-(2-(3-Hydroxy-2-methyl-prop-2-ylamino)-4-pyrimidinyl)ethyl)indole] stands 1.5 µM.
Same read-out and setting: under `C[C@H](Nc1nccc(CCc2c[nH]c3ccccc23)n1)c1ccccc1` [Example 29, 3-(2-(2-((S)-(−)-α-methylbenzylamino)-4-pyrimidinyl)ethyl)indole] stands 3 µM.
In the case of `C[C@@H](Nc1nccc(CCc2c[nH]c3ccccc23)n1)c1ccccc1` [Example 30, 3-(2-(2-((R)-(+)-α-methylbenzylamino)-4-pyrimidinyl)ethyl)idole], the IC50 against α p38 (50 min reaction) came out at 15 µM.
Still for that read-out and setting: under `c1ccc2c(CCc3ccncn3)c[nH]c2c1` [Example 31, 3-(2-(4-Pyrimidinyl)ethyl)indole] stands 715 µM.
As to `CC(C)(C)c1cc(NC(=O)Nc2ccc3[nH]cc(CCc4ccncc4)c3c2)n(-c2ccccc2)n1` [Example 32, 5-(3-tert-Butyl-1-phenylpyrazol-5-ylcarbamoylamino)-3-(2-(4-pyridyl)ethyl)indole], on α p38 (unit stated in cell), the IC50 was 0.145 µM.
Same read-out and setting: the figure for `Cc1ccc(S(=O)(=O)n2cc(CCc3cccnc3)c3ccccc32)cc1` [Example 34, 1-[(4-Methylphenyl)sulphonyl]-3-(2-(3-pridyl)ethyl)indole] is greater than 1000 µM.

The record behind these values is US20050124620A1, “Pharmaceutical compounds” (priority 2002, published 2005).
